# In patent publication EP1479385B1, “Use of cyclooxygenase-2 inhibitors in the treatment and prevention of neoplasia” (G.D. Searle LLC, priority 1996, dated 1998):
# Legend:
# [1] = test system: Lewis Lung carcinoma cells; assay: Combination therapy in Lewis Lung carcinoma model (tumor volume); assay type: in vivo, C57BL/6 mice; settings: CTX 50 mg/kg injected on days 5, 7 and 9 after implantation
# Experimental: Lewis Lung carcinoma cells (2.5 x 10^6 cells) prepared from a brei carried in C57BL/6 mice were injected sub-cutaneously into the hind legs of mice.
# [2] = test system: Lewis lung carcinomas; assay: Murine Lewis lung carcinoma model (tumor volume); assay type: in vivo, C57BL/6 mice; settings: day 32 after cancer cell injection, vs control group
# Experimental: Lewis lung carcinomas were implanted sub-cutaneously into the foot pad of male C57BL/6 mice. The mice were subsequently treated with 4-[5-(4-chlorophenyl)-3-(difluoromethyl)-1H-pyrazol-1-yl)benzenesulfonamide. The drug was supplied in the drinking water at 6 mg/kg/day. […] The drug was supplied in the drinking water at the maximum tolerated dose of […]. A total of 10 mice/compound were tested. Tumor volume was determined twice a week using a plethysmometer. The % inhibition value is calculated by calculating the difference in tumor size compared with the control group.
# [3] = test system: PC-3 cells; assay: Human prostate cancer PC-3 tumors in nude mice; assay type: in vivo; settings: 20 mg/kg/day in water
# Experimental: (§1) Two human prostate cancer cell lines (PC-3 and LNCaP) were obtained (ATCC) to determine the efficacy of cyclooxygenase-2 inhibitors to inhibit tumor growth in a therapeutic model. In addition, the LNCaP cell line secretes prostate serum antigen (PSA) when grown in nude mice.
# PC-3 cells (10^6 cells/0.2 ml of 30% matrigel) in RPMI 1640 medium was injected on the back of nude mice. […] After 45 days, PGE2 and TXB2 were measured.
# [4] = test system: LNCaP; assay: Human prostate cancer LNCaP tumors in nude mice; assay type: in vivo; settings: dose equivalent to 6 mg/kg/day in the drinking water
# Excerpt: as §1
# PSA level was reduced to approximately 50% as judged by western blotting.
smiles,measurement,setting,value
"O=P1(N(CCCl)CCCl)NCCCO1 (centres unmarked) [CTX, Cyclophosphamide]",Tumor Volume (Day 22) % Inhibition,[1],57%
"COc1ccc2c(c1)c(CC(=O)O)c(C)n2C(=O)c1ccc(Cl)cc1 [Indomethacin, indomethacin, reference compound]",Tumor Volume (Day 32) % Inhibition,[2]; 2 mg/kg/day (maximum tolerated dose) in the drinking water,62.90%
"NS(=O)(=O)c1ccc(-n2nc(C(F)F)cc2-c2ccc(Cl)cc2)cc1 [COX-2 inhibitor, 4-[5-(4-chlorophenyl)-3-(difluoromethyl)-1H-pyrazol-1-yl]benzenesulfonamide]",Tumor Volume (Day 32) % Inhibition,[2]; 6 mg/kg/day in the drinking water,70.86%
same,inhibited tumor growth,"[3]; administered from day 28, after 45 days",55%
same,PGE2 levels reduced,[3]; measured after 45 days,80-90%
same,TXB2 levels reduced,[3]; measured after 45 days,80-90%
same,inhibited the growth of the tumor,[4]; day 58,55%
same,PSA level was reduced to,[4]; judged by western blotting,approximately 50%
